Results from paper PMC11915801, “Evolutionary trajectory of bacterial resistance to antibiotics and antimicrobial peptides in Escherichia coli” (mSystems, 2025).
Converted amounts (≈) assume the structure as drawn. Where two headings read alike, the source gives them in different places. Where a SMILES comes first, the peptide text is derived from it.

Key:
Experiment in all cases: microbe, parasite or virus in culture
Assay type in all cases: cell-based, Escherichia coli
[1] = system: E. coli K-12 MG1655; details: for MIC: Escherichia coli; for MIC of MG1655 under the pressure of the same drug, generation primary: broth microdilution (CLSI), primary MG1655 before passage; for MIC of MG1655 under the pressure of the same drug, generation 10: broth microdilution, line passaged in MH broth with sub-inhibitory drug, 12 h per passage, 37℃
Protocol: (§1) The broth microdilution method was used to measure the MIC values of antibiotics and peptides according to the Clinical and Laboratory Standards Institute guidelines. The MIC value is defined as the lowest drug concentration without visible bacteria.
Eight antibiotics and ten AMPs at the sub-inhibitory concentration were prepared. A 300-µL system, including 260 µL of MH broth, 30 µL of prepared drug, and 10 µL of bacterial culture, was used for resistance passages. After 12 h of incubation at 37℃ and 200 rpm, 10 µL of the above bacterial culture was added into the new sterile drug-containing broth. MIC values of bacterial culture were determined. The drug concentration was adjusted according to the MIC value change until the end of the 120 passages.

[2] = system: AMP120 (evolved MG1655); details: broth microdilution, ampicillin-evolved strain
Excerpt: (§2) To ensure the stable resistance evolution and inheritance of MG1655 under different drugs, we randomly selected three monoclonals from the evolved strains. The final antibiotic-evolved strains were designated as AMP120, AZI120, CHL80, CIP120, DOX120, KAN80, NIT70, and TMP30, while the final AMP-evolved strains were named COL120, Ind120, Omi120, Pex120, PGLA120, Pleu120, R8120, SAAP120, LI120, and SLAP120.
as §1

[3] = system: NIT70 (evolved MG1655); details: broth microdilution, nitrofurantoin-evolved strain
Excerpt: as §2, §1

[4] = system: COL120 (evolved MG1655); details: broth microdilution, colistin-evolved strain
Excerpt: as §2, §1

[5] = system: TMP30 (evolved MG1655); details: broth microdilution, trimethoprim-evolved strain
Excerpt: as §2, §1

[6] = system: AZI120 (evolved MG1655); details: broth microdilution, azithromycin-evolved strain
Excerpt: as §2, §1

[7] = system: DOX120 (evolved MG1655); details: broth microdilution, doxycycline-evolved strain
Excerpt: as §2, §1

[8] = system: CIP120 (evolved MG1655); details: broth microdilution, ciprofloxacin-evolved strain
Excerpt: as §2, §1

[9] = system: KAN80 (evolved MG1655); details: broth microdilution, kanamycin-evolved strain
Excerpt: as §2, §1

[10] = system: CHL80 (evolved MG1655); details: broth microdilution, chloramphenicol-evolved strain
Excerpt: as §2, §1

C[C@H]1c2cccc(O)c2C(=O)C2=C(O)[C@]3(O)C(=O)C(C(N)=O)=C(O)[C@@H](N(C)C)[C@@H]3[C@@H](O)[C@@H]21 [DOX, Doxycycline]
MIC ([1]; MG1655, 12 h, read-out: MIC of MG1655 under the pressure of the same drug, generation 10): 16 µg/mL | MIC ([1]; MG1655, read-out: MIC of MG1655 under the pressure of the same drug, generation primary): 2 µg/mL | MIC ([1]; MG1655, as E2, generation 20, read-out: MIC of MG1655 under the pressure of the same drug, generation 20): 32 µg/mL | MIC ([1]; MG1655, as E2, generation 30, read-out: MIC of MG1655 under the pressure of the same drug, generation 30): 32 µg/mL | MIC ([1]; MG1655, as E2, generation 40, read-out: MIC of MG1655 under the pressure of the same drug, generation 40): 32 µg/mL | MIC ([1]; MG1655, as E2, generation 50, read-out: MIC of MG1655 under the pressure of the same drug, generation 50): 32 µg/mL | MIC ([1]; MG1655, as E2, generation 60, read-out: MIC of MG1655 under the pressure of the same drug, generation 60): 32 µg/mL | MIC ([1]; MG1655, as E2, generation 70, read-out: MIC of MG1655 under the pressure of the same drug, generation 70): 32 µg/mL | MIC ([1]; MG1655, as E2, generation 80, read-out: MIC of MG1655 under the pressure of the same drug, generation 80): 32 µg/mL | MIC ([1]; MG1655, as E2, generation 90, read-out: MIC of MG1655 under the pressure of the same drug, generation 90): 32 µg/mL | MIC ([1]; MG1655, as E2, generation 100, read-out: MIC of MG1655 under the pressure of the same drug, generation 100): 32 µg/mL | MIC ([1]; MG1655, as E2, generation 110, read-out: MIC of MG1655 under the pressure of the same drug, generation 110): 32 µg/mL | MIC ([1]; MG1655, as E2, generation 120, read-out: MIC of MG1655 under the pressure of the same drug, generation 120): 32 µg/mL | MIC ([2]; Escherichia coli, MG1655): 2 µg/mL (≈ 4.5 µM) | MIC ([3]; Escherichia coli, MG1655): 8 µg/mL (≈ 18 µM) | MIC ([4]; Escherichia coli, MG1655): 4 µg/mL (≈ 9 µM) | MIC ([5]; Escherichia coli, MG1655): 4 µg/mL (≈ 9 µM) | MIC ([6]; Escherichia coli, MG1655): 8 µg/mL (≈ 18 µM) | MIC ([7]; Escherichia coli, MG1655): 32 µg/mL (≈ 72 µM) | MIC ([8]; Escherichia coli): 16 µg/mL (≈ 36 µM) | MIC ([9]; Escherichia coli, MG1655): 1 µg/mL (≈ 2.25 µM) | MIC ([10]; Escherichia coli, MG1655): 16 µg/mL (≈ 36 µM)

NC[C@H]1O[C@H](O[C@H]2[C@H](O)[C@@H](O[C@H]3O[C@H](CO)[C@@H](O)[C@H](N)[C@H]3O)[C@H](N)C[C@@H]2N)[C@H](O)[C@@H](O)[C@@H]1O [KAN, Kanamycin]
increase in MIC values after experimental evolution ([1]; MG1655, sub-inhibitory drug in MH broth over 60 days, final vs primary MIC): 256 fold | MIC of MG1655 under the pressure of the same drug, generation 20 ([1]; as E2, generation 20): 32 µg/mL | MIC of MG1655 under the pressure of the same drug, generation 30 ([1]; as E2, generation 30): 64 µg/mL | MIC of MG1655 under the pressure of the same drug, generation 40 ([1]; as E2, generation 40): 64 µg/mL | MIC of MG1655 under the pressure of the same drug, generation 50 ([1]; as E2, generation 50): 128 µg/mL | MIC of MG1655 under the pressure of the same drug, generation 60 ([1]; as E2, generation 60): 256 µg/mL | MIC of MG1655 under the pressure of the same drug, generation 70 ([1]; as E2, generation 70): 256 µg/mL | MIC of MG1655 under the pressure of the same drug, generation 80 ([1]; as E2, generation 80): 512 µg/mL | MIC of MG1655 under the pressure of the same drug, generation primary [1]: 2 µg/mL | MIC of MG1655 under the pressure of the same drug, generation 10 [1]: 16 µg/mL | MIC values of evolved MG1655, strain AMP120 [2]: 1 µg/mL | MIC values of evolved MG1655, strain NIT70 [3]: 4 µg/mL | MIC values of evolved MG1655, strain COL120 [4]: 4 µg/mL | MIC values of evolved MG1655, strain TMP30 [5]: 4 µg/mL | MIC values of evolved MG1655, strain AZI120 [6]: 4 µg/mL | MIC values of evolved MG1655, strain DOX120 [7]: 2 µg/mL | MIC values of evolved MG1655, strain CIP120 [8]: 4 µg/mL | MIC values of evolved MG1655, strain KAN80 [9]: 512 µg/mL | MIC values of evolved MG1655, strain CHL80 [10]: 2 µg/mL

CC(C)C[C@H](NC(=O)[C@H](Cc1ccc(O)cc1)NC(=O)[C@H](Cc1c[nH]cn1)NC(=O)[C@@H](NC(=O)[C@H](CC(C)C)NC(=O)[C@H](C)NC(=O)[C@H](C)NC(=O)[C@H](CCCCN)NC(=O)CNC(=O)[C@@H](NC(=O)[C@H](Cc1c[nH]cn1)NC(=O)[C@H](CCCCN)NC(=O)CNC(=O)[C@@H](NC(=O)[C@H](Cc1c[nH]cn1)NC(=O)[C@H](C)NC(=O)[C@H](C)NC(=O)[C@H](CCCCN)NC(=O)[C@H](CCCCN)NC(=O)[C@H](Cc1ccccc1)NC(=O)[C@H](Cc1ccccc1)NC(=O)[C@H](CO)NC(=O)CNC(=O)[C@H](Cc1c[nH]c2ccccc12)NC(=O)CN)C(C)C)C(C)C)[C@@H](C)O)C(=O)O [Pleu, Pleurocidin] (H-GWGSFFKKAAHVGKHVGKAALTHYL-OH)
MIC of MG1655 under the pressure of the same drug, generation 20 ([1]; as E2, generation 20): 2 µg/mL | MIC of MG1655 under the pressure of the same drug, generation 30 ([1]; as E2, generation 30): 2 µg/mL | MIC of MG1655 under the pressure of the same drug, generation 40 ([1]; as E2, generation 40): 2 µg/mL | MIC of MG1655 under the pressure of the same drug, generation 50 ([1]; as E2, generation 50): 2 µg/mL | MIC of MG1655 under the pressure of the same drug, generation 60 ([1]; as E2, generation 60): 2 µg/mL | MIC of MG1655 under the pressure of the same drug, generation 70 ([1]; as E2, generation 70): 2 µg/mL | MIC of MG1655 under the pressure of the same drug, generation 80 ([1]; as E2, generation 80): 2 µg/mL | MIC of MG1655 under the pressure of the same drug, generation 90 ([1]; as E2, generation 90): 2 µg/mL | MIC of MG1655 under the pressure of the same drug, generation 100 ([1]; as E2, generation 100): 2 µg/mL | MIC of MG1655 under the pressure of the same drug, generation 110 ([1]; as E2, generation 110): 2 µg/mL | MIC of MG1655 under the pressure of the same drug, generation 120 ([1]; as E2, generation 120): 2 µg/mL | MIC of MG1655 under the pressure of the same drug, generation primary [1]: 2 µg/mL | MIC of MG1655 under the pressure of the same drug, generation 10 [1]: 2 µg/mL | MIC values of evolved MG1655, strain AMP120 [2]: 1 µg/mL | MIC values of evolved MG1655, strain NIT70 [3]: 1 µg/mL | MIC values of evolved MG1655, strain COL120 [4]: 1 µg/mL | MIC values of evolved MG1655, strain TMP30 [5]: 1 µg/mL | MIC values of evolved MG1655, strain AZI120 [6]: 1 µg/mL | MIC values of evolved MG1655, strain DOX120 [7]: 1 µg/mL | MIC values of evolved MG1655, strain CIP120 [8]: 1 µg/mL | MIC values of evolved MG1655, strain KAN80 [9]: 1 µg/mL | MIC values of evolved MG1655, strain CHL80 [10]: 1 µg/mL
